Source: patent US11325919B1, “Synthetic novel pyrroloiminoquinone alkaloid and method of use” (priority 2019, dated 2022)
Entries after “also recorded” stand apart in the source; their conditions may differ.

Experiments:
Colon 38 = assay: differential cytotoxicity zone assay, Colon 38; assay type: cell-based, murine
From the text: (§1) Discorhabdin A is the precursor to aleutianamine.

MDA = assay: differential cytotoxicity zone assay, MDA; assay type: cell-based
From the text: as §1

topoisomerase II = settings: cited from earlier work
H-116 = assay: differential cytotoxicity zone assay, H-116; assay type: cell-based, human
From the text: as §1

CEM = assay: differential cytotoxicity zone assay, CEM; assay type: cell-based, human
From the text: as §1

CFU-GM = assay: differential cytotoxicity zone assay, CFU-GM; assay type: cell-based
From the text: as §1

PANC-1 = assay: differential cytotoxicity zone assay, PANC-1; assay type: cell-based, human
From the text: as §1

L1210 = assay: differential cytotoxicity zone assay, L1210; assay type: cell-based, murine
From the text: as §1

LNCaP = assay: differential cytotoxicity zone assay, LNCaP; assay type: cell-based, human
From the text: as §1

OVC-5 = assay: differential cytotoxicity zone assay, OVC-5; assay type: cell-based
From the text: as §1

U251N = assay: differential cytotoxicity zone assay, U251N; assay type: cell-based
From the text: as §1

H-125 = assay: differential cytotoxicity zone assay, H-125; assay type: cell-based
From the text: as §1

MCF-7 = assay: differential cytotoxicity zone assay, MCF-7; assay type: cell-based, human
From the text: as §1

solid human tumor = solid human tumor model; cited from earlier work
HCT-116 cells = assay: clonogenic studies, concentration-survival as function of exposure time; assay type: cell-based, human
Method: Clonogenic studies were carried out using HCT-116 cells to define the concentration-survival relationship as a function of exposure time.^26 The endpoint used, tS10 (10% survival of clonogenic cells for exposure time t) provides information essential for future preclinical therapeutic studies. These clonogenic studies based on formula II yielded a 2S10 value of >5 μM; a 24S10 value of 0.75 μM; and a 168S10 value of 0.1 μM. […] Compounds shown in Formula I are simple modifications and bio-isosteres and would have similar activity to the compound of formula II.

[1] = test system: solid tumor cell lines compared to murine and human leukemia cells; assay: differential cytotoxicity zone assay, solid tumor selectivity versus leukemia cells; assay type: cell-based
From the text: as §1

[2] = test system: human HCT-116 colon cancer cells; assay: cytotoxicity IC50, HCT-116 colon cancer cells; assay type: cell-based
[3] = test system: PANC-1 pancreatic cancer cells; assay: cytotoxicity IC50, PANC-1 pancreatic cancer cells; assay type: cell-based; settings: Homo sapiens; pancreatic cancer (PANC-1)

Which zones of inhibition (Colon 38; Conc. 2 mg/ml) does the source give for O=C1CC2SC3C[C@]2(C=C1Br)C1=C(N3)C(=O)c2[nH]cc3c2C1=NCC3 (stereo partly drawn) [Discorhabdin A, discorhabdin A] here?
Its zones of inhibition is 750 mm.

And the zones of inhibition (Colon 38; Conc. 1/16)?
Its zones of inhibition is 700 mm.

And the zones of inhibition (Colon 38; Conc. ¼)?
Its zones of inhibition is 800 mm.

What about the zones of inhibition (MDA; Conc. 1/16) of the same compound?
Its zones of inhibition is 500 mm.

What about the zones of inhibition (MDA; Conc. 1/64) of the same compound?
Its zones of inhibition is 300 mm.

And the zones of inhibition (MDA; Conc. ¼)?
The zones of inhibition was 1000 mm.

And the “inhibition of topoisomerase II” value (topoisomerase II)?
The value was “no inhibition”.

And the zones of inhibition (H-116; Conc. 2 mg/ml)?
The zones of inhibition was over 1000 mm.

And the zones of inhibition (H-116; Conc. 1/16)?
The zones of inhibition was 500 mm.

What about the zones of inhibition (H-116; Conc. ¼) of the same compound?
Its zones of inhibition is 900 mm.

What about the zones of inhibition (CEM; Conc. 1/16) of the same compound?
Its zones of inhibition is 100 mm.

And the zones of inhibition (CEM; Conc. 1/64)?
Its zones of inhibition is 50 mm.

And the zones of inhibition (CEM; Conc. ¼)?
The zones of inhibition was 450 mm.

What about the zones of inhibition (CFU-GM; Conc. 1/16) of the same compound?
Its zones of inhibition is 300 mm.

What about the zones of inhibition (CFU-GM; Conc. ¼) of the same compound?
The zones of inhibition was over 1000 mm.

And the zones of inhibition (PANC-1; Conc. 1/16)?
The zones of inhibition was 150 mm.

What about the zones of inhibition (PANC-1; Conc. 1/64) of the same compound?
The zones of inhibition was 100 mm.

And the zones of inhibition (PANC-1; Conc. ¼)?
The zones of inhibition was 450 mm.

And the zones of inhibition (L1210; Conc. 2 mg/ml)?
Its zones of inhibition is 1000 mm.

And the zones of inhibition (L1210; Conc. 1/16)?
The zones of inhibition was 250 mm.

And the zones of inhibition (L1210; Conc. ¼)?
The zones of inhibition was 300 mm.

And the zones of inhibition (LNCaP; Conc. 1/16)?
The zones of inhibition was 500 mm.

And the zones of inhibition (LNCaP; Conc. 1/64)?
The zones of inhibition was 250 mm.

And the zones of inhibition (OVC-5; Conc. 1/16)?
Its zones of inhibition is 500 mm.

What about the zones of inhibition (OVC-5; Conc. 1/64) of the same compound?
Its zones of inhibition is 200 mm.

What about the zones of inhibition (OVC-5; Conc. ¼) of the same compound?
The zones of inhibition was 700 mm.

What about the zones of inhibition (U251N; Conc. 1/16) of the same compound?
The zones of inhibition was 300 mm.

What about the zones of inhibition (U251N; Conc. 1/64) of the same compound?
The zones of inhibition was 200 mm.

And the zones of inhibition (U251N; Conc. ¼)?
Its zones of inhibition is 300 mm.

What about the zones of inhibition (H-125; Conc. 1/16) of the same compound?
The zones of inhibition was 750 mm.

What about the zones of inhibition (H-125; Conc. 1/64) of the same compound?
Its zones of inhibition is 400 mm.

What about the zones of inhibition (H-125; Conc. ¼) of the same compound?
The zones of inhibition was 950 mm.

What about the zones of inhibition (MCF-7; Conc. 1/16) of the same compound?
The zones of inhibition was 600 mm.

And the zones of inhibition (MCF-7; Conc. 1/64)?
Its zones of inhibition is 350 mm.

And the zones of inhibition (MCF-7; Conc. ¼)?
The zones of inhibition was 800 mm.

For C[N+]1=C2C=C(N)C(=O)c3[nH]cc(c32)CC1.[Cl-] [Makaluvamine C], which tumor size (solid human tumor) is on record?
Its tumor size is “decrease tumor size”.

For Cn1cc2c3c1C(=O)C(N)=CC3=NCC2 [Makaluvamine A], which tumor size (solid human tumor) is on record?
Its tumor size is “decrease tumor size”.

With C[C@H]([C@H](O)CCC(C)(C)O)[C@H]1CC[C@@]2(O)C3=CC(=O)[C@@H]4C[C@@H](O)[C@@H](O)C[C@]4(C)[C@H]3CC[C@]12C [Ecdysone] as the compound, how does the zones of inhibition (Colon 38; Conc. 2 mg/ml) read?
Its zones of inhibition is 0 mm.

What about the zones of inhibition (MDA; Conc. 2 mg/ml) of the same compound?
Its zones of inhibition is 0 mm.

What about the zones of inhibition (H-116; Conc. 2 mg/ml) of the same compound?
Its zones of inhibition is 0 mm.

And the zones of inhibition (PANC-1; Conc. 2 mg/ml)?
The zones of inhibition was 0 mm.

What about the zones of inhibition (L1210; Conc. 2 mg/ml) of the same compound?
Its zones of inhibition is 0 mm.

And the zones of inhibition (LNCaP; Conc. 2 mg/ml)?
The zones of inhibition was 0 mm.

And the zones of inhibition (OVC-5; Conc. 2 mg/ml)?
Its zones of inhibition is 0 mm.

And the zones of inhibition (U251N; Conc. 2 mg/ml)?
Its zones of inhibition is 0 mm.

What about the zones of inhibition (H-125; Conc. 2 mg/ml) of the same compound?
The zones of inhibition was 0 mm.

And the zones of inhibition (MCF-7; Conc. 2 mg/ml)?
The zones of inhibition was 0 mm.

For karlotoxin 2, which zones of inhibition (Colon 38; Conc. 2 mg/ml) is on record?
The zones of inhibition was 200 mm.

What about the zones of inhibition (MDA; Conc. 2 mg/ml) of the same compound?
Its zones of inhibition is 200 mm.

What about the zones of inhibition (H-116; Conc. 2 mg/ml) of the same compound?
Its zones of inhibition is 200 mm.

And the zones of inhibition (CEM; Conc. 2 mg/ml)?
Its zones of inhibition is 100 mm.

And the zones of inhibition (PANC-1; Conc. 2 mg/ml)?
Its zones of inhibition is 200 mm.

And the zones of inhibition (L1210; Conc. 2 mg/ml)?
The zones of inhibition was 150 mm.

What about the zones of inhibition (LNCaP; Conc. 2 mg/ml) of the same compound?
The zones of inhibition was 400 mm.

And the zones of inhibition (OVC-5; Conc. 2 mg/ml)?
The zones of inhibition was 200 mm.

And the zones of inhibition (U251N; Conc. 2 mg/ml)?
The zones of inhibition was 150 mm.

And the zones of inhibition (H-125; Conc. 2 mg/ml)?
The zones of inhibition was 100 mm.

And the zones of inhibition (MCF-7; Conc. 2 mg/ml)?
The zones of inhibition was 200 mm.

With O=C1C2=C3C4=[N+](CCc5c[nH]c1c54)[C@@H]1C[C@]34S[C@@H](C=C4C=C1Br)N2 [Aleutianamine] as the compound, how does the zones of inhibition (Colon 38; Conc. 2 mg/ml) read?
The zones of inhibition was over 1000 mm.

And the zones of inhibition (Colon 38; Conc. 1/16)?
Its zones of inhibition is 900 mm.

What about the zones of inhibition (Colon 38; Conc. 1/64) of the same compound?
Its zones of inhibition is 450 mm.

What about the zones of inhibition (Colon 38; Conc. ¼) of the same compound?
Its zones of inhibition is over 1000 mm.

What about the zones of inhibition (MDA; Conc. 1/16) of the same compound?
Its zones of inhibition is 800 mm.

And the zones of inhibition (MDA; Conc. 1/64)?
The zones of inhibition was 500 mm.

What about the zones of inhibition (MDA; Conc. ¼) of the same compound?
The zones of inhibition was over 1000 mm.

What about the “2S10 (10% survival of clonogenic cells for exposure time t)” value (HCT-116 cells; exposure time 2) of the same compound?
Its value is over 5 µM.

What about the “24S10 (10% survival of clonogenic cells for exposure time t)” value (HCT-116 cells; exposure time 24) of the same compound?
Its value is 0.75 µM.

What about the “168S10 (10% survival of clonogenic cells for exposure time t)” value (HCT-116 cells; exposure time 168) of the same compound?
The value was 0.1 µM.

And the “selectivity of cell killing” value [1]?
The value was “solid tumor selectivity; also recorded: highly potent and selective for pancreatic and breast cancer as well as gliobastoma”.

And the zones of inhibition (H-116; Conc. 2 mg/ml)?
Its zones of inhibition is over 1000 mm.

And the zones of inhibition (H-116; Conc. 1/16)?
Its zones of inhibition is 600 mm.

And the zones of inhibition (H-116; Conc. 1/64)?
The zones of inhibition was 250 mm.

What about the zones of inhibition (H-116; Conc. ¼) of the same compound?
Its zones of inhibition is 950 mm.

What about the IC50 ([2]; colon cancer (H116)) of the same compound?
Its IC50 is 1000 nM.

What about the IC50 ([2]; colon cancer (H116 / HCT-116)) of the same compound?
Its IC50 is 1000 nM.

And the zones of inhibition (CEM; Conc. 1/16)?
Its zones of inhibition is 750 mm.

What about the zones of inhibition (CEM; Conc. 1/64) of the same compound?
The zones of inhibition was 350 mm.

What about the zones of inhibition (CEM; Conc. ¼) of the same compound?
The zones of inhibition was 900 mm.

What about the zones of inhibition (CFU-GM; Conc. 1/16) of the same compound?
Its zones of inhibition is over 1000 mm.

And the zones of inhibition (CFU-GM; Conc. 1/64)?
The zones of inhibition was 750 mm.

What about the zones of inhibition (CFU-GM; Conc. ¼) of the same compound?
The zones of inhibition was over 1000 mm.

What about the zones of inhibition (PANC-1; Conc. 1/16) of the same compound?
The zones of inhibition was over 1000 mm.

What about the zones of inhibition (PANC-1; Conc. 1/64) of the same compound?
Its zones of inhibition is 650 mm.

And the zones of inhibition (L1210; Conc. 2 mg/ml)?
The zones of inhibition was 950 mm.

And the zones of inhibition (L1210; Conc. 1/16)?
The zones of inhibition was 500 mm.

And the zones of inhibition (L1210; Conc. 1/64)?
Its zones of inhibition is 250 mm.

And the zones of inhibition (L1210; Conc. ¼)?
The zones of inhibition was 700 mm.

And the zones of inhibition (LNCaP; Conc. 1/16)?
The zones of inhibition was 1000 mm.

What about the zones of inhibition (LNCaP; Conc. 1/64) of the same compound?
The zones of inhibition was 500 mm.

And the zones of inhibition (OVC-5; Conc. 1/16)?
The zones of inhibition was 700 mm.

What about the zones of inhibition (OVC-5; Conc. 1/64) of the same compound?
Its zones of inhibition is 350 mm.

What about the zones of inhibition (OVC-5; Conc. ¼) of the same compound?
Its zones of inhibition is 900 mm.

And the IC50 [3]?
The IC50 was 25 nM.

And the zones of inhibition (U251N; Conc. 1/16)?
Its zones of inhibition is 850 mm.

And the zones of inhibition (U251N; Conc. 1/64)?
Its zones of inhibition is 700 mm.

What about the zones of inhibition (U251N; Conc. ¼) of the same compound?
Its zones of inhibition is over 1000 mm.

What about the zones of inhibition (H-125; Conc. 1/16) of the same compound?
The zones of inhibition was 900 mm.

And the zones of inhibition (H-125; Conc. 1/64)?
The zones of inhibition was 400 mm.

What about the zones of inhibition (H-125; Conc. ¼) of the same compound?
The zones of inhibition was over 1000 mm.

What about the zones of inhibition (MCF-7; Conc. 1/16) of the same compound?
Its zones of inhibition is over 1000 mm.

What about the zones of inhibition (MCF-7; Conc. 1/64) of the same compound?
The zones of inhibition was 600 mm.

What about the zones of inhibition (MCF-7; Conc. ¼) of the same compound?
Its zones of inhibition is over 1000 mm.
